Tested on: MV-4-11 cells
Assay: Gene expression microarray analysis (Affymetrix PrimeView) and GSEA
Type: cell-based, human
Design: RFU PODN (11730768_x_at) / Fold change /veh PODN (11730768_x_at) / RFU LINC00158 (11744669_a_at) / Fold change /veh LINC00158 (11744669_a_at) / RFU DUSP10 (11751237_a_at) / Fold change /veh DUSP10 (11751237_a_at) / RFU ID3 (11757404_x_at) / Fold change /veh ID3 (11757404_x_at) / RFU PLEKHG5 (11737974_s_at) / Fold change /veh PLEKHG5 (11737974_s_at) / RFU LRRC4B (11730491_at) / Fold change /veh LRRC4B (11730491_at) / RFU GIMAP4 (11747438_a_at) / Fold change /veh GIMAP4 (11747438_a_at) / RFU KRT8 (11758183_x_at) / Fold change /veh KRT8 (11758183_x_at) / RFU CNN1 (11734310_a_at) / Fold change /veh CNN1 (11734310_a_at) / RFU VPS37D (11726825_at) / Fold change /veh VPS37D (11726825_at) / RFU C10orf10 (11716522_x_at) / Fold change /veh C10orf10 (11716522_x_at) / RFU KIR2DL2 /// KIR2DL4 /// KIR2DL5A /// KIR2DL5B /// KIR2DS1 /// KIR2DS2 /// KIR2DS3 /// KIR2DS4 /// KIR3DL3 /// KIR3DL3 /// KIR3DS1 (11738374_at) / Fold change /veh KIR2DL2 /// KIR2DL4 /// KIR2DL5A /// KIR2DL5B /// KIR2DS1 /// KIR2DS2 /// KIR2DS3 /// KIR2DS4 /// KIR3DL3 /// KIR3DL3 /// KIR3DS1 (11738374_at) / RFU C1QL1 (11718748_at) / Fold change /veh C1QL1 (11718748_at) / RFU TMPRSS4 (11747572_a_at) / Fold change /veh TMPRSS4 (11747572_a_at) / RFU HAMP (11756126_x_at) / Fold change /veh HAMP (11756126_x_at) / RFU RNFT2 (11725882_a_at) / Fold change /veh RNFT2 (11725882_a_at) / RFU NR4A2 (11747474_a_at) / Fold change /veh NR4A2 (11747474_a_at) / RFU ABCC12 (11746883_a_at) / Fold change /veh ABCC12 (11746883_a_at) / RFU TMEM136 (11760407_x_at) / Fold change /veh TMEM136 (11760407_x_at) / RFU CLDN22 /// WWC2 (11732394_at) / Fold change /veh CLDN22 /// WWC2 (11732394_at) / RFU HLA-DPB1 (11760878_x_at) / Fold change /veh HLA-DPB1 (11760878_x_at) / RFU SPINT1 (11716480_a_at) / Fold change /veh SPINT1 (11716480_a_at) / RFU GAP43 (11754022_s_at) / Fold change /veh GAP43 (11754022_s_at) / RFU A4GNT (11735810_at) / Fold change /veh A4GNT (11735810_at) / RFU PRB3 (11715151_x_at) / Fold change /veh PRB3 (11715151_x_at) / RFU TUBB4B (11761932_at) / Fold change /veh TUBB4B (11761932_at) / RFU CAPN14 (11732068_a_at) / Fold change /veh CAPN14 (11732068_a_at) / RFU TMCC2 (11721928_a_at) / Fold change /veh TMCC2 (11721928_a_at) / RFU IRGQ (11745062_a_at) / Fold change /veh IRGQ (11745062_a_at) / RFU FAM174B (11720279_a_at) / Fold change /veh FAM174B (11720279_a_at) / RFU TMPRSS4 (11748680_a_at) / Fold change /veh TMPRSS4 (11748680_a_at) / RFU FAM212B (11763350_a_at) / Fold change /veh FAM212B (11763350_a_at) / RFU PLEKHG5 (11743358_a_at) / Fold change /veh PLEKHG5 (11743358_a_at) / RFU ZSCAN30 (11745921_a_at) / Fold change /veh ZSCAN30 (11745921_a_at) / RFU CMKLR1 (11741424_a_at) / Fold change /veh CMKLR1 (11741424_a_at) / RFU LOC101060620 /// MAPK8IP1 (11723275_at) / Fold change /veh LOC101060620 /// MAPK8IP1 (11723275_at) / RFU SPTSSB (11747773_x_at) / Fold change /veh SPTSSB (11747773_x_at) / RFU PRSS12 (11739890_at) / Fold change /veh PRSS12 (11739890_at) / RFU BIN1 (11741810_x_at) / Fold change /veh BIN1 (11741810_x_at) / RFU WNT11 (11732464_a_at) / Fold change /veh WNT11 (11732464_a_at) / RFU C10orf10 (11716521_a_at) / Fold change /veh C10orf10 (11716521_a_at) / RFU C5orf56 (11738089_at) / Fold change /veh C5orf56 (11738089_at) / RFU CYB561 (11721691_x_at) / Fold change /veh CYB561 (11721691_x_at) / RFU ANKRD19P (11752326_a_at) / Fold change /veh ANKRD19P (11752326_a_at) / RFU OR2T12 /// OR2T33 /// OR2T8 (11738714_s_at) / Fold change /veh OR2T12 /// OR2T33 /// OR2T8 (11738714_s_at) / RFU VCAN (11748164_a_at) / Fold change /veh VCAN (11748164_a_at) / RFU JSRP1 (11732532_at) / Fold change /veh JSRP1 (11732532_at) / RFU KRTAP10-11 (11738290_x_at) / Fold change /veh KRTAP10-11 (11738290_x_at) / RFU MYO3A (11730013_a_at) / Fold change /veh MYO3A (11730013_a_at) / RFU EBF3 (11725865_a_at) / Fold change /veh EBF3 (11725865_a_at) / RFU CAMK2N1 (11719241_x_at) / Fold change /veh CAMK2N1 (11719241_x_at) / RFU C5orf56 (11738088_a_at) / Fold change /veh C5orf56 (11738088_a_at) / RFU OLFML3 (11715873_a_at) / Fold change /veh OLFML3 (11715873_a_at) / RFU LOC100653217 /// NTM (11731650_a_at) / Fold change /veh LOC100653217 /// NTM (11731650_a_at) / RFU MAPK11 (11762145_a_at) / Fold change /veh MAPK11 (11762145_a_at) / RFU FIZ1 (11724087_x_at) / Fold change /veh FIZ1 (11724087_x_at) / RFU OASL (11726364_x_at) / Fold change /veh OASL (11726364_x_at) / RFU SOX15 (11748057_x_at) / Fold change /veh SOX15 (11748057_x_at) / RFU CD79A (11719716_a_at) / Fold change /veh CD79A (11719716_a_at) / RFU HIST1H1D (11736915_at) / Fold change /veh HIST1H1D (11736915_at) / RFU CASKIN2 (11723855_a_at) / Fold change /veh CASKIN2 (11723855_a_at) / RFU LOC730098 (11760151_x_at) / Fold change /veh LOC730098 (11760151_x_at) / RFU OR4N2 (11742367_at) / Fold change /veh OR4N2 (11742367_at) / RFU PRRT2 (11749266_a_at) / Fold change /veh PRRT2 (11749266_a_at) / RFU SNX32 (11753110_a_at) / Fold change /veh SNX32 (11753110_a_at) / RFU CDHR5 (11726645_a_at) / Fold change /veh CDHR5 (11726645_a_at) / RFU RCAN1 (11760418_a_at) / Fold change /veh RCAN1 (11760418_a_at) / RFU FAM167A (11723789_a_at) / Fold change /veh FAM167A (11723789_a_at) / RFU FAM26E (11764081_at) / Fold change /veh FAM26E (11764081_at) / RFU ISYNA1 (11749810_s_at) / Fold change /veh ISYNA1 (11749810_s_at) / RFU ACY1 (11761880_at) / Fold change /veh ACY1 (11761880_at) / RFU 11764098_at / Fold change /veh 11764098_at / RFU SAMD14 (11745864_x_at) / Fold change /veh SAMD14 (11745864_x_at) / RFU NPB (11741838_a_at) / Fold change /veh NPB (11741838_a_at) / RFU TMPRSS6 (11731388_a_at) / Fold change /veh TMPRSS6 (11731388_a_at) / RFU KRTAP10-2 (11738614_at) / Fold change /veh KRTAP10-2 (11738614_at) / RFU ARHGAP8 /// PRR5-ARHGAP8 (11727945_x_at) / Fold change /veh ARHGAP8 /// PRR5-ARHGAP8 (11727945_x_at) / RFU KRTAP5-7 /// NADSYN1 (11734609_at) / Fold change /veh KRTAP5-7 /// NADSYN1 (11734609_at) / RFU RASL12 (11751679_a_at) / Fold change /veh RASL12 (11751679_a_at) / RFU CDKN2B (11736163_a_at) / Fold change /veh CDKN2B (11736163_a_at) / RFU PRF1 (11729649_at) / Fold change /veh PRF1 (11729649_at) / RFU, ZNF638 /// ZNF638-IT1 / Fold change vs veh, ZNF638 /// ZNF638-IT1 / RFU, PANK3 / Fold change vs veh, PANK3 / RFU, SH3YL1 / Fold change vs veh, SH3YL1 / RFU, ZEB2 / Fold change vs veh, ZEB2 / RFU, NRIP1 / Fold change vs veh, NRIP1 / RFU, PTTG1IP / Fold change vs veh, PTTG1IP / RFU, CAPN2 / Fold change vs veh, CAPN2 / RFU, MED14 / Fold change vs veh, MED14 / RFU, SNORA58 / Fold change vs veh, SNORA58 / RFU, C1orf63 / Fold change vs veh, C1orf63 / RFU, LRRFIP1 / Fold change vs veh, LRRFIP1 / RFU, NDUFAF7 / Fold change vs veh, NDUFAF7 / RFU, SLC12A2 / Fold change vs veh, SLC12A2 / RFU, IBTK / Fold change vs veh, IBTK / RFU, ESF1 / Fold change vs veh, ESF1 / Fold change vs veh, TMEM50B / RFU, TAOK1 / Fold change vs veh, TAOK1 / RFU, ACBD3 / Fold change vs veh, ACBD3 / RFU, TMA16 / Fold change vs veh, TMA16 / RFU, RWDD3 / Fold change vs veh, RWDD3 / RFU, BCAT1 / Fold change vs veh, BCAT1 / RFU, EDEM3 / Fold change vs veh, EDEM3 / RFU, TMEM33 / Fold change vs veh, TMEM33 / RFU, WDR75 / Fold change vs veh, WDR75 / RFU, AHCTF1 / Fold change vs veh, AHCTF1 / RFU, TFRC / Fold change vs veh, TFRC / RFU, ZDHHC17 / Fold change vs veh, ZDHHC17 / RFU, NOM1 / Fold change vs veh, NOM1 / RFU, ARL8B / Fold change vs veh, ARL8B / RFU, ZBTB11 / Fold change vs veh, ZBTB11 / RFU, TAMM41 / Fold change vs veh, TAMM41 / RFU, KIAA1704 /// LOC100996395 / Fold change vs veh, KIAA1704 /// LOC100996395 / RFU, ING1 / Fold change vs veh, ING1 / RFU, TRMT61B / Fold change vs veh, TRMT61B / RFU, FUBP3 / Fold change vs veh, FUBP3 / RFU, TP53 / Fold change vs veh, TP53 / RFU, TNKS2 / Fold change vs veh, TNKS2 / RFU, ZFP14 / Fold change vs veh, ZFP14 / RFU, ACTR2 / Fold change vs veh, ACTR2 / RFU, PPP3R1 / Fold change vs veh, PPP3R1 / RFU, PIK3R1 / Fold change vs veh, PIK3R1 / RFU, HNRNPA1 / Fold change vs veh, HNRNPA1 / RFU, RNF170 / Fold change vs veh, RNF170 / RFU, ZNF28 / Fold change vs veh, ZNF28 / RFU, RNGTT / Fold change vs veh, RNGTT / RFU, OGT / Fold change vs veh, OGT / RFU, BRD1 / Fold change vs veh, BRD1 / RFU, MARS / Fold change vs veh, MARS / RFU, ZNF655 / Fold change vs veh, ZNF655 / RFU, FAHD1 / Fold change vs veh, FAHD1 / RFU, BDP1 / Fold change vs veh, BDP1 / RFU, LRRCC1 / Fold change vs veh, LRRCC1 / RFU, ARID1A / Fold change vs veh, ARID1A / RFU, ZNF146 / Fold change vs veh, ZNF146 / RFU, ZNF330 / Fold change vs veh, ZNF330 / RFU, GPN3 / Fold change vs veh, GPN3 / RFU, C9orf123 / Fold change vs veh, C9orf123 / RFU, N4BP2L2 / Fold change vs veh, N4BP2L2 / RFU, ARFIP1 / Fold change vs veh, ARFIP1 / RFU, FAM179B / Fold change vs veh, FAM179B / RFU, BCL10 / Fold change vs veh, BCL10 / RFU, UHRF1BP1L / Fold change vs veh, UHRF1BP1L / RFU, BET1 / Fold change vs veh, BET1 / RFU, CNOT2 / Fold change vs veh, CNOT2 / RFU, ZNF268 / Fold change vs veh, ZNF268 / Fold change vs veh, ZNF507 / RFU, DGCR2 / Fold change vs veh, DGCR2 / RFU, WDSUB1 / Fold change vs veh, WDSUB1 / Fold change vs veh, HSP90B1 /// MIR3652 / RFU, ADSS / Fold change vs veh, ADSS / RFU, GK / Fold change vs veh, GK / RFU, ZNF148 / Fold change vs veh, ZNF148 / RFU, TAF9 / Fold change vs veh, TAF9 / RFU, SLC1A5 / Fold change vs veh, SLC1A5 / RFU, SLMO2 / Fold change vs veh, SLMO2 / RFU, ABCC4 / Fold change vs veh, ABCC4 / RFU, LOC101060439 /// RAP1B / Fold change vs veh, LOC101060439 /// RAP1B / RFU, RFX7 / Fold change vs veh, RFX7 / RFU, GTPBP10 / Fold change vs veh, GTPBP10 / RFU, CNEP1R1 / Fold change vs veh, CNEP1R1 / RFU, BIVM-ERCC5 /// ERCC5 / Fold change vs veh, BIVM-ERCC5 /// ERCC5 / RFU, ILF3 / Fold change vs veh, ILF3 / RFU 11762660_at / Fold change /veh 11762660_at / RFU VCAN (11757783_s_at) / Fold change /veh VCAN (11757783_s_at) / RFU DDX43 (11728927_at) / Fold change /veh DDX43 (11728927_at) / RFU KRT8 (11758188_x_at) / Fold change /veh KRT8 (11758188_x_at) / RFU NKD1 (11759106_at) / Fold change /veh NKD1 (11759106_at) / RFU SRD5A1 (11742802_a_at) / Fold change /veh SRD5A1 (11742802_a_at) / RFU TPSAB1 /// TPSB2 (11721975_s_at) / Fold change /veh TPSAB1 /// TPSB2 (11721975_s_at) / RFU GSTM3 (11746129_a_at) / Fold change /veh GSTM3 (11746129_a_at) / RFU IL23R (11737362_x_at) / Fold change /veh IL23R (11737362_x_at) / RFU TMEM51 (11727254_a_at) / Fold change /veh TMEM51 (11727254_a_at) / RFU PIWIL2 (11732686_x_at) / Fold change /veh PIWIL2 (11732686_x_at) / RFU ORM1 (11744905_x_at) / Fold change /veh ORM1 (11744905_x_at) / RFU CCDC152 (11743942_at) / Fold change /veh CCDC152 (11743942_at) / RFU ECM1 (11717891_a_at) / Fold change /veh ECM1 (11717891_a_at) / RFU IL23R (11748794_a_at) / Fold change /veh IL23R (11748794_a_at) / RFU TNFAIP8L3 (11732012_x_at) / Fold change /veh TNFAIP8L3 (11732012_x_at) / RFU MBOAT4 (11741988_at) / Fold change /veh MBOAT4 (11741988_at) / RFU 11764193_at / Fold change /veh 11764193_at / RFU TMEM53 (11763286_at) / Fold change /veh TMEM53 (11763286_at) / RFU MAGEB2 (11727129_at) / Fold change /veh MAGEB2 (11727129_at) / RFU TMEM200A (11744735_a_at) / Fold change /veh TMEM200A (11744735_a_at) / RFU CCDC152 (11751479_a_at) / Fold change /veh CCDC152 (11751479_a_at) / RFU FAM211A (11726209_a_at) / Fold change /veh FAM211A (11726209_a_at) / RFU RGS16 (11746705_a_at) / Fold change /veh RGS16 (11746705_a_at) / RFU VCAN (11755009_s_at) / Fold change /veh VCAN (11755009_s_at) / RFU RHOB (11743442_s_at) / Fold change /veh RHOB (11743442_s_at) / RFU RGS16 (11720943_a_at) / Fold change /veh RGS16 (11720943_a_at) / RFU RGS16 (11720944_at) / Fold change /veh RGS16 (11720944_at) / RFU, VPS4B / Fold change vs veh, VPS4B / RFU, CREB1 / Fold change vs veh, CREB1 / RFU, DNAJC13 / Fold change vs veh, DNAJC13 / RFU, GNAQ / Fold change vs veh, GNAQ / RFU, CDK5R1 / Fold change vs veh, CDK5R1 / RFU, ZRANB3 / Fold change vs veh, ZRANB3 / RFU, CUL4A / Fold change vs veh, CUL4A / RFU, CCNY / Fold change vs veh, CCNY / RFU, UFL1 / Fold change vs veh, UFL1 / RFU, COG3 / Fold change vs veh, COG3 / RFU, DIAPH2 / Fold change vs veh, DIAPH2 / RFU, SKA2 / Fold change vs veh, SKA2 / RFU, AFF3 / Fold change vs veh, AFF3 / RFU, LMF1 / Fold change vs veh, LMF1 / RFU, IPO11 / Fold change vs veh, IPO11 / RFU, DFFB / Fold change vs veh, DFFB / RFU, FOXP1 / Fold change vs veh, FOXP1 / RFU, CARD8 / Fold change vs veh, CARD8 / RFU, STRN3 / Fold change vs veh, STRN3 / RFU, ADK / Fold change vs veh, ADK / RFU, RASSF2 / Fold change vs veh, RASSF2 / RFU, WIPF1 / Fold change vs veh, WIPF1 / RFU, LARP1B / Fold change vs veh, LARP1B / RFU, RASA1 / Fold change vs veh, RASA1 / RFU, RB1 / Fold change vs veh, RB1 / RFU, PPFIA1 / Fold change vs veh, PPFIA1 / RFU, MAT2A / Fold change vs veh, MAT2A / RFU, CCT5 / Fold change vs veh, CCT5 / RFU, WDR92 / Fold change vs veh, WDR92 / RFU, CUX1 / Fold change vs veh, CUX1 / RFU, TTC7A / Fold change vs veh, TTC7A / RFU, TMEM135 / Fold change vs veh, TMEM135 / RFU, DEPTOR / Fold change vs veh, DEPTOR / RFU, CPM / Fold change vs veh, CPM / RFU, DNAJB6 / Fold change vs veh, DNAJB6 / RFU, CACNA2D3 / Fold change vs veh, CACNA2D3 / RFU, DTX4 / Fold change vs veh, DTX4 / RFU, TFCP2 / Fold change vs veh, TFCP2 / RFU, GMCL1 /// GMCL1P1 / Fold change vs veh, GMCL1 /// GMCL1P1 / RFU, AEBP2 / Fold change vs veh, AEBP2 / RFU, SNHG1 /// SNORD22 /// SNORD25 /// SNORD26 /// SNORD27 /// SNORD28 /// SNORD29 /// SNORD31 / Fold change vs veh, SNHG1 /// SNORD22 /// SNORD25 /// SNORD26 /// SNORD27 /// SNORD28 /// SNORD29 /// SNORD31 / Fold change (Aza/veh), C12orf56 (ProbeSet 11735607_a_at) / Fold change (ACY-1035/veh), C12orf56 (ProbeSet 11735607_a_at) / Fold change (Aza/veh), FGFR1OP (ProbeSet 11751329_s_at) / Fold change (ACY-1035/veh), FGFR1OP (ProbeSet 11751329_s_at) / Fold change (Aza/veh), VPS36 (ProbeSet 11739960_a_at) / Fold change (ACY-1035/veh), VPS36 (ProbeSet 11739960_a_at) / RFU SYPL1 (11715823_x_at) / Fold change /veh SYPL1 (11715823_x_at) / RFU IGFBP7 (11715501_s_at) / Fold change /veh IGFBP7 (11715501_s_at) / RFU REEP3 (11722064_at) / Fold change /veh REEP3 (11722064_at) / RFU IGLL1 (11728026_x_at) / Fold change /veh IGLL1 (11728026_x_at): dose or concentration left out as unconfirmed
Details: ProbeSet 11741123_x_at; LIST D

## Nc1ccc(-c2cccs2)cc1NC(=O)c1ccc2c(c1)cc(C1CC1)n2CCN1CCOCC1 [ACY-1035]
  Fold change vs veh, ADK: 0.96

From article PMC5218480 (PLoS ONE, 2017)
